Test results reported in patent US4593090A, “Novel nitrosourea compounds, method for preparing same, and pharmaceutical composition containing same” (Gogo Kimura, priority 1981, dated 1986).
Like-named read-outs stand apart in the source and are kept apart here.

Columns and labels:
Leukemia L1210 = assay: Activity against Leukemia L1210, intraperitoneal, increase in life span of mice; format: in vivo, female mice (BDF1 family); conditions: for ED (maximum ILS) / ED30: Mus musculus, L1210, ip, ip once a day for 5 successive days; for ED (maximum ILS): daily dosage giving maximum increase of life span, read-out: O.D. (optimum dosage); for ED30: daily dosage increasing average survival days by 30%, read-out: ILS30; for Survivors after 60 days / Max. ILS % / Therapeutic ratio TR: ip; for Survivors after 60 days: 6-membered group; for Max. ILS %: 60-day observation, versus control; for Therapeutic ratio TR: O.D./ILS30
Outline: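 Dosing started 24 h after ip implantation of 1×10^5 L1210 cells into groups of 6 female BDF1 mice, by ip or oral route daily for 5 consecutive days. Survival was followed for 60 days; increase in life span was scored against untreated mice, with therapeutic ratio from optimum dose over ILS30 dose.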

Ehrlich acites carcinoma = assay: Growth-inhibiting effect against Ehrlich acites carcinoma; format: in vivo, male mice; conditions: Mus musculus, Ehrlich, 120 h, 5 days; for response vs control in vivo at 50 mg/kg: 50 mg/kg/day ip; for response vs control in vivo at 200 mg/kg: 200 mg/kg/day ip; for response vs control in vivo at 25 mg/kg: 25 mg/kg/day ip; for response vs control in vivo at 100 mg/kg: 100 mg/kg/day ip
Method: Ehrlich acites carcinoma (1×10^7 cells) was implantated into the abdominal cavities of a 6-membered group of male mice. Test compounds (solutions or suspensions in 1% Nikohl HCO-60) were each intraperioneally administered once a day 5 successive days to the mice 24 hrs. after the implantation. Total packed cell volumes [TPCV, namely, total packed volumes of Acites carcinoma] were determined 7 days after the implantation to calculate growth ratio of tumor [T/C%; T: packed volume of Acites carcinoma in treated groups, C: packed volume of Acites carcinoma in an untreated group]. Acitivity is represented by - when T/C% is 100-66, by + when T/C% 65-41, by ++ when T/C% 40-11, and by +++ when T/C% 10-0.

[1] = Acute toxicity (LD50, Behrens-Karber method); format: in vivo, ICR mice; conditions: mouse, in vivo, ip, mortality during 30 days
Method: Test compounds, dissolved or suspended in 0.5% aqueous CMC, were each intraperitoneally administered to ICR mice in a dose of 0.1 ml per 10 g body weight. LD50 (mg/kg) value of each test compound was calculated from the mortality of mice during 30 days by the Behrens-Karber method.

Structure (SMILES) | ED (maximum ILS) (Leukemia L1210) [mg/kg] | ED30 (Leukemia L1210) [mg/kg] | Survivors after 60 days (Leukemia L1210) | Max. ILS % (Leukemia L1210) [%] | Therapeutic ratio TR (Leukemia L1210) | response vs control in vivo at 50 mg/kg (Ehrlich acites carcinoma; read-out: Activity) [%] | response vs control in vivo at 50 mg/kg (Ehrlich acites carcinoma; read-out: T/C %) [%] | response vs control in vivo at 200 mg/kg (Ehrlich acites carcinoma; read-out: Activity) [%] | response vs control in vivo at 200 mg/kg (Ehrlich acites carcinoma; read-out: T/C %) [%] | LD50 at 720 h [1] [mg/kg] | response vs control in vivo at 25 mg/kg (Ehrlich acites carcinoma; read-out: Activity) [%] | response vs control in vivo at 25 mg/kg (Ehrlich acites carcinoma; read-out: T/C %) [%] | response vs control in vivo at 100 mg/kg (Ehrlich acites carcinoma; read-out: Activity) [%] | response vs control in vivo at 100 mg/kg (Ehrlich acites carcinoma; read-out: T/C %) [%]
CCCCO[C@H]1O[C@H](CN(C)C(=O)N(CCCl)N=O)[C@H](O)[C@H](O)[C@H]1O [Compound 105, 3-methyl-3-(n-butyl α-D-galactopyranose-6-yl)-1-(2-chloroethyl)-1-nitrosourea] | 130 | 3.59 | 3/6 | > 320 | 36.2 | 0 to 10 | 5.7 | 0 to 10 | 0 | 320 |  |  |  | 
COCCCO[C@H]1O[C@H](CN(CC(C)C)C(=O)N(CCCl)N=O)[C@@H](O)[C@H](O)[C@H]1O [Compound 31] | 170 | 2.65 | 6/6 | > 700 | 64.2 |  |  |  |  | 505 | 0 to 10 | 0 | 0 to 10 | 0
COCCCO[C@H]1O[C@H](CN(C(=O)N(CCCl)N=O)C(C)(C)C)[C@@H](O)[C@H](O)[C@H]1O [Compound 179, 3-tert-butyl-3-(3-methoxy-n-propyl α-D-glucopyranose-6-yl)-1-(2-chloroethyl)-1-nitrosourea] | 180 | 2.79 | 6/6 | > 700 | 64.4 |  |  |  |  | 560 | 0 to 10 | 0 | 0 to 10 | 0
CC(C)(C)N(C[C@H]1O[C@H](OCC2CCCO2)[C@H](O)[C@@H](O)[C@@H]1O)C(=O)N(CCCl)N=O (stereo partly drawn) [Compound 193, 3-tert-butyl-3-(tetrahydrofurfuryl α-D-glucopyranose-6-yl)-1-(2-chloroethyl)-1-nitrosourea] | 160 | 2.52 | 6/6 | > 700 | 63.4 |  |  |  |  | 550 | 0 to 10 | 0 | 0 to 10 | 0
CCC(C)O[C@H]1O[C@H](CN(C(=O)N(CCCl)N=O)C(C)CO)[C@@H](O)[C@H](O)[C@H]1O (stereo partly drawn) [Compound 20, 3-(2-hydroxy-1-methylethyl)-3-(sec-butyl α-D-glucopyranose-6-yl)-1-(2-chloroethyl)-1-nitrosourea] | 170 | 3.92 | 4/6 | > 430 | 43.4 |  |  |  |  | 560 | 0 to 10 | 0 | 0 to 10 | 0
CCCCO[C@H]1O[C@H](CN(CCOCCO)C(=O)N(CCCl)N=O)[C@@H](O)[C@H](O)[C@H]1O [Compound 12, 3-[2-(2-hydroxyethoxy)ethyl]-3-(n-butyl α-D-glucopyranose-6-yl)-1-(2-chloroethyl)-1-nitrosourea] | 170 | 2.85 | 6/6 | > 700 | 59.6 |  |  |  |  | 505 | 0 to 10 | 0 | 0 to 10 | 0
CCCCOC1OC(CO)C(O)C(N(CCCOC)C(=O)N(CCCl)N=O)C1O [Compound 82, 3-(3-methoxy-n-propyl)-3-(n-butyl α-D-glucopyranose-3-yl)-1-(2-chloroethyl)-1-nitrosourea] | 200 | 5.5 | 3/6 | > 345 | 30.4 |  |  |  |  | 655 | 0 to 10 | 0 | 0 to 10 | 0
CCOCCN(C[C@H]1O[C@H](OC2CCCCC2)[C@H](O)[C@@H](O)[C@@H]1O)C(=O)N(CCCl)N=O [Compound 40, 3-(2-ethoxyethyl)-3-(cyclohexyl α-D-glucopyranose-6-yl)-1-(2-chloroethyl)-1-nitrosourea] | 170 | 2.66 | 6/6 | > 700 | 63.9 |  |  |  |  | 545 | 0 to 10 | 0 | 0 to 10 | 0
CCC(C)N(C[C@H]1O[C@H](OCCOCOC)[C@H](O)[C@@H](O)[C@H]1O)C(=O)N(CCCl)N=O (some centres unmarked) [Compound 115] | 200 | 3.2 | 6/6 | > 700 | 62.5 |  |  |  |  | 600 | 0 to 10 | 0 | 0 to 10 | 0
COCC(C)N(C(=O)N(CCCl)N=O)[C@H]1[C@@H](OCC(C)C)O[C@H](CO)[C@H](O)[C@@H]1O (stereo partly drawn) [Compound 124, 3-(1-methyl-2-methoxyethyl)-3-(isobutyl α-D-galactopyranose-2-yl)-1-(2-chloroethyl)-1-nitrosourea] | 210 | 5.3 | 3/6 | > 360 | 39.6 |  |  |  |  | 745 | 0 to 10 | 0 | 0 to 10 | 0
COCC(C)N(C(=O)N(CCCl)N=O)C1C(CO)OC(OCC(C)C)C(O)C1O [Compound 94, 3-(1-methyl-2-methoxyethyl)-3-(isobutyl α-D-glucopyranose-4-yl)-1-(2-chloroethyl)-1-nitrosourea] | 160 | 4.43 | 3/6 | > 360 | 36.1 |  |  |  |  | 520 | 0 to 10 | 0 | 0 to 10 | 0
COCCCN(C[C@H]1O[C@H](OCC(C)C)[C@@H](O)[C@@H](O)[C@H]1O)C(=O)N(CCCl)N=O [Compound 146, 3-(3-methoxy-n-propyl)-3-(isobutyl α-D-talopyranose-6-yl)-1-(2-chloroethyl)-1-nitrosourea] | 180 | 3.19 | 5/6 | > 620 | 56.4 |  |  |  |  | 595 | 0 to 10 | 0 | 0 to 10 | 0
CCN(C[C@H]1O[C@H](OCC(C)C)[C@H](O)[C@@H](O)[C@H]1O)C(=O)N(CCCl)N=O [Compound 108, 3-ethyl-3-(isobutyl α-D-galactopyranose-6-yl)-1-(2-chloroethyl)-1-nitrosourea] | 130 | 4.24 | 3/6 | > 320 | 30.7 | 0 to 10 | 7.8 | 0 to 10 | 0 | 390 |  |  |  | 
CCCCN(C[C@H]1O[C@H](OCCCOC)[C@H](O)[C@@H](O)[C@@H]1O)C(=O)N(CCCl)N=O [Compound 30, 3-n-butyl-3-(3-methoxy-n-propyl-α-D-glucopyranose-6-yl)-1-(2-chloroethyl)-1-nitrosourea] | 150 | 2.61 | 6/6 | > 700 | 57.5 |  |  |  |  | 450 | 0 to 10 | 0 | 0 to 10 | 0
